Read-outs that look alike come from different tables or passages of the source.
Assays:
[1] = biological target: T1, human adenosine A1 receptor (Homo sapiens, UniProt P30542); test: Competition binding, [3H]-DPCPX, hA1 CHO membranes; conditions: read-out: Receptor hA1 Ki, mean ± SEM
T1 sequence (P30542 1-326): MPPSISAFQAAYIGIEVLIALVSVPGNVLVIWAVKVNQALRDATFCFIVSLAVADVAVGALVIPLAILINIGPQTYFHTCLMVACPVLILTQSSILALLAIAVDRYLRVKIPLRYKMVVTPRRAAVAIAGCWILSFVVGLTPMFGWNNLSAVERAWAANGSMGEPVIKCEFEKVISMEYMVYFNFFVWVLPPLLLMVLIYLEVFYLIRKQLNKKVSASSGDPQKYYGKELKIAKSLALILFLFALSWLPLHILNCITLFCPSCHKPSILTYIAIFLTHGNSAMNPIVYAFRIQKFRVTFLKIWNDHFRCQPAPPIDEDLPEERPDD

[2] = biological target: T2, human adenosine A3 receptor (Homo sapiens, UniProt P0DMS8); test: Competition binding, [125I]-ABMECA, hA3 CHO membranes; conditions: mean ± SEM
T2 construct: expressed in transfected cells; host or cells: CHO cells (membrane preparation)
T2 sequence (P0DMS8 1-318): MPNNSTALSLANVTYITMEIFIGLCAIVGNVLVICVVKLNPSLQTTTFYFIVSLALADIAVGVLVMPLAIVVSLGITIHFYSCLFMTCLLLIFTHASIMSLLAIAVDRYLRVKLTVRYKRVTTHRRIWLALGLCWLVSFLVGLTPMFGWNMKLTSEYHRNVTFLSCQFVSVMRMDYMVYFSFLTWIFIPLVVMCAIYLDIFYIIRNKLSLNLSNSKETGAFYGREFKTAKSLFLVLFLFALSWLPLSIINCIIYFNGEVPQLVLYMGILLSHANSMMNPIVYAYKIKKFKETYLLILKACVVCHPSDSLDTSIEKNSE

[3] = biological target: T3, human adenosine A2A receptor (Homo sapiens, UniProt P29274); test: cAMP assay in hA2A CHO cells, basal or with CGS 21680; type: cell-based; parameters: expressed in transfected cells; host or cells: CHO cells; conditions: for IC50: mean ± SEM
T3 sequence (P29274 whole entry): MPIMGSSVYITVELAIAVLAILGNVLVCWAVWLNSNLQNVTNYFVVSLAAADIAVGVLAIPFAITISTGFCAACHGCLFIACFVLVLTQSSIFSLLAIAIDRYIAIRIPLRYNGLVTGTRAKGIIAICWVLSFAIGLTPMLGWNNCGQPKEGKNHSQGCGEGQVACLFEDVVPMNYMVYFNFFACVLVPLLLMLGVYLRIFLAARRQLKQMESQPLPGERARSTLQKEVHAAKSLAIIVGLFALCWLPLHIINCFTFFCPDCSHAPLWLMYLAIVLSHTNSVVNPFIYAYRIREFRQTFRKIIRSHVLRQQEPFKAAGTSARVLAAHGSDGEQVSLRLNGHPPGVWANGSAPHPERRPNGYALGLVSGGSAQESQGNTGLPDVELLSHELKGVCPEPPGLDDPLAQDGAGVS
Protocol: For the membranes preparation the culture medium was removed, and the cells were washed with a saline phosphate-buffered solution collected with hypotonic buffer (5 mM Tris HCl, 1 mM EDTA, pH 7.4).
CHO cells transfected with the adenosine receptors were washed with a phosphate-buffered saline solution, detached with trypsin and centrifuged for 10 minutes at 200 g. […] The reaction was terminated by addition of cold 6% trichloroacetic acid (TCA). The TCA suspension was centrifuged at 2000 g for 10 minutes at 4° C. and the supernatant was extracted four times with diethyl ether with water. The final aqueous solution was tested for the cAMP levels by a competition protein binding assay with a cAMP-binding protein. The standard samples of cAMP (0-10 pmoli) were added to each test tube containing the incubation buffer (trizma base 0.1 M, aminophylline 8.0 mM, 2 mercaptoethanol 6.0 mM, pH 7.4) and [^3H]-cAMP. The binding protein previously prepared from beef adrenals, was added to the samples previously incubated at 4° C. for 150 minutes, and after the addition of charcoal were centrifuged at 2000 g for 10 min.
(§1) The statistical analysis of the data was performed using ANOVA followed by Dunnett's test. […] KH and KL were obtained by using a two sites binding model and Graph PAD Prism (San Diego, Calif., USA). The values of IC50 obtained in the cAMP assays were calculated by non-linear regression analysis using the equation for a sigmoid concentration-response curve. All data are expressed as the mean±SEM of four independent experiments each performed in duplicate for in vitro assays and n=8-10 mice/group for in vivo assays.

[4] = biological target: T3, human adenosine A2A receptor; test: Competition binding, [3H]-ZM 241385, hA2A CHO membranes; conditions: read-out: Receptor hA2A Ki; [3H]-ZM 241385; single affinity value; mean ± SEM
[5] = biological target: T4, human adenosine A2B receptor (Homo sapiens, UniProt P29275); test: cAMP assay, inhibition of NECA-stimulated cAMP levels in hA2B CHO cells; conditions: read-out: Receptor hA2B IC50; cAMP stimulated by NECA (100 nM); mean ± SEM
T4 sequence (P29275 1-332): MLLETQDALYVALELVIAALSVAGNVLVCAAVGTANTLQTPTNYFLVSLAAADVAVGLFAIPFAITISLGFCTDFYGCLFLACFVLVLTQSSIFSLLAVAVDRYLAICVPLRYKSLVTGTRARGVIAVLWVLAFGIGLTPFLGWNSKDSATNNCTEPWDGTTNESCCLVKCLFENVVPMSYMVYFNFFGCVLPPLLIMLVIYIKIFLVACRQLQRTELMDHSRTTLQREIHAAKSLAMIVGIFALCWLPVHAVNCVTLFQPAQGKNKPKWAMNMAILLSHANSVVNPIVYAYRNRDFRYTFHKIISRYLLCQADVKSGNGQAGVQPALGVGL

Female CD1 mice = test: Writhing test (acetic acid-induced abdominal constrictions); type: in vivo
Protocol: Female CD1 mice (22-24 g) were obtained from Charles River (Milano, Italia). The animals were kept under standard environmental temperature conditions (22±2° C.) and under moisture-controlled conditions with 12 hours light/dark cycle and food and water ad libitum. The animals were acclimated to the laboratory settings for at least 1 hour before testing and were used only once throughout the experiments. All the procedures used in the present study were carried out in accordance with the European Communities Council Directives (86/609/EEC) and the National Laws and Policies (D.L.116/92) after authorization from the Italian Ministry for Health (4/2014-B). In addition, the experimental procedures were in agreement with the current guidelines for the care of laboratory animals and the ethical guidelines for investigations of experimental pain in conscious animals (Couto M. Methods Mol Biol 2011; 770:579-599).
The acetic acid-induced writhing response was performed after intraperitoneal injection of 10 ml/Kg of 0.6% acetic acid solution. The response to the abdominal constrictions induced by acetic acid was evaluated after the intraperitoneal injection of 10 ml/kg of a 0.6% solution of acetic acid. The compounds under evaluation were dissolved in DMSO and then diluted in a saline solution. The carrier consists of saline solution and 5% of DMSO. A writhe is indicated by stretching of the abdomen followed by the extension of the hind limbs. The animals (8 mice per group) were placed singly in a glass cylinder and the number of writhing episodes of abdominal contractions was counted in a 30 minutes period. The compounds were administered intraperitoneally 15 minutes before injection of acetic acid solution.
as §1

[6] = CGS 21680 (10 nM), read-out: IC50 cAMP, in presence of CGS 21680
[7] = CGS 21680 (10 nM), read-out: Emax cAMP, in presence of CGS 21680
[8] = basal cAMP, read-out: IC50 cAMP, in absence of CGS 21680
[9] = efficacy versus basal cAMP production, read-out: Emax cAMP, in absence of CGS 21680

Nc1nc(NCc2cnccn2)nc2sc(-c3ccco3)nc12 [Compound 15, 2-(furan-2-yl)-N^5-(pyrazin-2-ylmethyl)[1,3]thiazolo[5,4-d]pyrimidin-5,7-diamine]
Ki [1]: 25 ± 4 nM | Ki [2]: 157 ± 14 nM | IC50 [3, 6]: 11.3 ± 0.96 nM | Emax [3, 7]: 117 ± 10% | IC50 [3, 8]: 8.27 ± 0.72 nM | Emax [3, 9]: 48 ± 4% | Ki [4]: 5.14 ± 0.48 nM | IC50 [5]: 13.2 ± 1.2 nM

CN1CC[C@]23c4c5ccc(O)c4O[C@H]2[C@@H](O)C=C[C@H]3[C@H]1C5 [morphine, reference compound]
ED50 (Female CD1 mice; Mus musculus, ip, intraperitoneal, 15 minutes before acetic acid): 0.123 ± 0.01 mg/kg | Dose-response curve, Writhing Test (Female CD1 mice; P<0.001, one-way ANOVA): dose-dependent effect

Nc1nc(NCCc2ccco2)nc2sc(-c3ccco3)nc12 [Compound 16, 2-(furan-2-yl)-N^5-(2-(furan-2-yl)ethyl)[1,3]thiazolo[5,4-d]pyrimidin-5,7-diamine]
Ki [1]: 5.24 ± 0.46 nM | Ki [2]: 23 ± 2 nM | IC50 [3, 6]: 4.26 ± 0.37 nM | Emax [3, 7]: 121 ± 11% | IC50 [3, 8]: 2.93 ± 0.22 nM | Emax [3, 9]: 56 ± 6% | Ki [4]: 2.15 ± 0.19 nM | IC50 [5]: 14 ± 1 nM

CCCNc1nc(N)c2nc(-c3ccco3)sc2n1 [Compound 11, 2-(furan-2-yl)-N^5-propyl-[1,3]thiazolo[5,4-d]pyrimidin-5,7-diamine]
Ki [1]: 64 ± 10 nM | Ki [2]: 35 ± 4 nM | Ki [4]: 17 ± 2 nM | IC50 [5]: 323 ± 28 nM

Nc1nc(NCc2ccncc2)nc2sc(-c3ccco3)nc12 [Compound 14, 2-(furan-2-yl)-N^5-(pyridin-4-ylmethyl)[1,3]thiazolo[5,4-d]pyrimidin-5,7-diamine]
Ki [1]: 47 ± 4 nM | Ki [2]: 827 ± 48 nM | IC50 [3, 6]: 18.7 ± 1.6 nM | Emax [3, 7]: 122 ± 10% | IC50 [3, 8]: 15.3 ± 1.2 nM | Emax [3, 9]: 43 ± 4% | Ki [4]: 12 ± 1 nM | IC50 [5]: 33 ± 2 nM

Nc1nc(NCc2ccccn2)nc2sc(-c3ccco3)nc12 [Compound 8, 2-(furan-2-yl)-N^5-(pyridin-2-ylmethyl)[1,3]thiazolo[5,4-d]pyrimidin-5,7-diamine]
Ki [1]: 28 ± 3 nM | Ki [2]: 59 ± 5 nM | IC50 [3, 6]: 1.3 ± 0.1 nM | Emax [3, 7]: 128 ± 11% | IC50 [3, 8]: 0.68 ± 0.06 nM | Emax [3, 9]: 54 ± 5% | Ki [4]: 0.42 ± 0.04 nM | IC50 [5]: 95 ± 9 nM

Nc1nc(NCc2cccc(F)c2)nc2sc(-c3ccco3)nc12 [Compound 9, N^5-(3-fluorobenzyl)-2-(furan-2-yl)[1,3]thiazolo[5,4-d]pyrimidin-5,7-diamine]
Ki [1]: 8.51 ± 0.76 nM | Ki [2]: 35 ± 4 nM | Ki [4]: 0.82 ± 0.07 nM | IC50 [5]: 103 ± 10 nM

CCCCNc1nc(N)c2nc(-c3ccco3)sc2n1 [Compound 12, N^5-butyl-2-(furan-2-yl)[1,3]thiazolo[5,4-d]pyrimidin-5,7-diamine]
Ki [1]: 41 ± 5 nM | Ki [2]: 23 ± 3 nM | Ki [4]: 8.21 ± 0.78 nM | IC50 [5]: 185 ± 17 nM

COc1ccc(CNc2nc(N)c3nc(-c4ccco4)sc3n2)cc1 [Compound 2, 2-(furan-2-yl)-N^5-(4-methoxybenzyl)[1,3]thiazolo[5,4-d]pyrimidin-5,7-diamine]
Ki [1]: 163 ± 12 nM | Ki [2]: 381 ± 37 nM | IC50 [3, 6]: 123 ± 11 nM | Emax [3, 7]: 116 ± 11% | IC50 [3, 8]: 187 ± 16 nM | Emax [3, 9]: 38 ± 4% | Ki [4]: 171 ± 16 nM | IC50 [5]: 283 ± 27 nM

Nc1nc(NCCc2cccnc2)nc2sc(-c3ccco3)nc12 [Compound 17, 2-(furan-2-yl)-N^5-(2-(pyridin-3-yl)ethyl)[1,3]thiazolo[5,4-d]pyrimidin-5,7-diamine]
Ki [1]: 2.61 ± 0.22 nM | Ki [2]: 174 ± 11 nM | IC50 [3, 6]: 0.35 ± 0.04 nM | Emax [3, 7]: 141 ± 14% | IC50 [3, 8]: 0.29 ± 0.03 nM | Emax [3, 9]: 71 ± 7% | Ki [4]: 0.24 ± 0.01 nM | IC50 [5]: 4.21 ± 0.32 nM

Nc1nc(NCc2ccsc2)nc2sc(-c3ccco3)nc12 [Compound 13, 2-(furan-2-yl)-N^5-(thiophen-3-ylmethyl)[1,3]thiazolo[5,4-d]pyrimidin-5,7-diamine]
Ki [1]: 8.12 ± 0.71 nM | Ki [2]: 3.14 ± 0.29 nM | IC50 [3, 6]: 0.41 ± 0.03 nM | Emax [3, 7]: 137 ± 13% | IC50 [3, 8]: 0.36 ± 0.04 nM | Emax [3, 9]: 67 ± 6% | Ki [4]: 0.25 ± 0.02 nM | IC50 [5]: 8.96 ± 0.82 nM

Nc1nc(NCc2cccc(O)c2)nc2sc(-c3ccco3)nc12 [Compound 4, 3-(((7-amino-2-(furan-2-yl)[1,3]thiazolo[5,4-d]pyrimidin-5-yl)amino)methyl) phenol]
Ki [1]: 27 ± 3 nM | Ki [2]: 55 ± 4 nM | IC50 [3, 6]: 22 ± 2 nM | Emax [3, 7]: 139 ± 13% | IC50 [3, 8]: 27 ± 2 nM | Emax [3, 9]: 68 ± 7% | Ki [4]: 20 ± 2 nM | IC50 [5]: 24 ± 3 nM

From patent US20200308192A1, “NOVEL THIAZOLO[5,4-D]PYRIMIDINE DERIVATIVES AS INVERSE AGONISTS OF A2A ADENOSINE RECEPTORS” (Universita degli Studi di Ferrara, priority 2016, published 2020)
